Earlier results in publication PMC12251151, “Understanding Anti-Obesity Potential of Four Porphyrin Compounds by Investigating Pancreatic Lipase Inhibition” (Molecules, 2025).

Tests used:
[1] = target: α-glucosidase; design: method as in PMID 36603279; settings: read-out: IC50 inhibiting α-glucosidase; cited from earlier work
[2] = target: α-amylase; design: method as in PMID 36603279; settings: read-out: IC50 inhibiting α-amylase; cited from earlier work

In the case of `COc1ccc([C@@H]2CC(=O)c3c(O)cc(O)cc3O2)cc1O` [Hsp, hesperetin], the IC50 [1] is given as 55.2 ± 0.1 µM and the IC50 [2] is given as 115.6 ± 1.1 µM.
